In US20160045440A1, “FORMULATION OF AMORPHOUS CALCIUM L-5-METHYLTETRAHYDROFOLATE (L-5-MTHF-Ca)” (CHEMO RESEARCH, S.L., priority 2013, published 2016):

What was measured:
[1] = Stability of powder mixtures of amorphous calcium L-5-methylfolate with stabilizing agents (1:10) on storage; format: physicochemical; details: 5° C. for one month; ALC:stabilizing agent 1:10
Protocol: Powder mixtures of amorphous calcium L-5-methylfolate with each of the stabilizing agents disclosed in the following table were prepared. In all the cases, the mixture contained a weight amount of calcium L-5-methylfolate to stabilizing agent of 1:10.

[2] = Stability of amorphous calcium L-5-methylfolate and cysteine at weight ratios 1:0 to 1:33 on storage; format: physicochemical
[3] = storage time of one month at 40° C.; cited from earlier work

CN1c2c(nc(N)[nH]c2=O)NC[C@@H]1CNc1ccc(C(=O)N[C@@H](CCC(=O)[O-])C(=O)[O-])cc1.[Ca+2] [Amorphous Calcium L-5-methylfolate (ALC), N-{4-[[((6S)-2-amino-1,4,5,6,7,8-hexahydro-5-methyl-4-oxo-6-pteridinyl)methyl]amino]benzoyl}-L-glutamic acid, calcium salt]
Assay (%) of Calcium L-5-methylfolate that remains in the mixture [1]: 91.02% | Related substances (%) D-Mefox [1]: 0.50% | Related substances (%) HO-MeTHFA [1]: 1.18% | Related substances (%) L-Mefox [1]: 4.27% | Related substances (%) TOTAL impurities [1]: 8.0% | Assay (%) ([2]; 5° C. for 1 month): 99.59% | Related substances (%) D-Mefox ([2]; 5° C. for 1 month): 0.42% | Related substances (%) HO-MeTHFA ([2]; 5° C. for 1 month): 1.80% | Related substances (%) L-Mefox ([2]; 5° C. for 1 month): 2.52% | Related substances (%) TOTAL impurities ([2]; 5° C. for 1 month): 5.59% | Assay (%) ([2]; 5° C. for 3 months): 96.39% | Related substances (%) D-Mefox ([2]; 5° C. for 3 months): 0.32% | Related substances (%) HO-MeTHFA ([2]; 5° C. for 3 months): 1.34% | Related substances (%) L-Mefox ([2]; 5° C. for 3 months): 2.74% | Related substances (%) TOTAL impurities ([2]; 5° C. for 3 months): 5.74% | Assay (%) ([2]; 25° C./60% HR for 1 month): 89.13% | Related substances (%) D-Mefox ([2]; 25° C./60% HR for 1 month): 0.71% | Related substances (%) HO-MeTHFA ([2]; 25° C./60% HR for 1 month): 1.75% | Related substances (%) L-Mefox ([2]; 25° C./60% HR for 1 month): 4.68% | Related substances (%) TOTAL impurities ([2]; 25° C./60% HR for 1 month): 9.19% | Assay (%) ([2]; 25° C./60% HR for 3 months): 84.03% | Related substances (%) D-Mefox ([2]; 25° C./60% HR for 3 months): 0.57% | Related substances (%) HO-MeTHFA ([2]; 25° C./60% HR for 3 months): 1.44% | Related substances (%) L-Mefox ([2]; 25° C./60% HR for 3 months): 6.49% | Related substances (%) TOTAL impurities ([2]; 25° C./60% HR for 3 months): 11.95% | Assay (%) ([2]; 40° C./75% HR for 1 month): 81.95% | Related substances (%) D-Mefox ([2]; 40° C./75% HR for 1 month): 0.93% | Related substances (%) HO-MeTHFA ([2]; 40° C./75% HR for 1 month): 1.84% | Related substances (%) L-Mefox ([2]; 40° C./75% HR for 1 month): 8.97% | Related substances (%) TOTAL impurities ([2]; 40° C./75% HR for 1 month): 15.57%

CN1c2c(nc(N)[nH]c2=O)NC[C@@H]1CNc1ccc(C(=O)N[C@@H](CCC(=O)[O-])C(=O)[O-])cc1.[Ca+2] [Metafolin, Calcium L-5-methylfolate]
Metafolin that remains in the compositions obtained by granulation [3]: 60%
